Assay results from publication PMC12320293 (2025).
Values belong to the compound of their own block, whether it stands above or below them.

What was measured:
[1] = system: miR-31 hairpin (pre-miR-31 residues 20-52) (RNA, miRNA) GGCAUAGCUGUUGAACUGGGAACCUGCUAUGCC; experiment: fluorescent indicator displacement; conditions: KH2PO4 50 mM (500 mM in Methods), Mg2+ 1 mM, 100 μM compound, 50.9 nM RNA; for % TO-PRO-1 displaced: TO-PRO-1 500 nM displaced; for binding: TO-PRO-1 500 nM displaced by >15%
[2] = system: miR-31 hairpin (pre-miR-31 residues 20-52) (RNA, miRNA) GGCAUAGCUGUUGAACUGGGAACCUGCUAUGCC; experiment: 1H-13C HSQC NMR; conditions: KH2PO4 50 mM (500 mM in Methods), Mg2+ 1 mM; ND: no observable change at 10-fold ligand excess; 37 °C
[3] = system: miR-31 hairpin (pre-miR-31 residues 20-52) (RNA, miRNA) GGCAUAGCUGUUGAACUGGGAACCUGCUAUGCC; experiment: STD-NMR; conditions: KH2PO4 50 mM (500 mM in Methods), Mg2+ 1 mM, 10 μM RNA, 200 μM ligand
[4] = system: miR-31 hairpin (pre-miR-31 residues 20-52) (RNA, miRNA) GGCAUAGCUGUUGAACUGGGAACCUGCUAUGCC; experiment: 1H-13C HSQC NMR titration (peak volumes); conditions: KH2PO4 50 mM (500 mM in Methods), Mg2+ 1 mM, apparent, pH 7.5, 2% DMSO, 10% D2O, 37 °C, 100 μM RNA
[5] = system: miR-31 hairpin (pre-miR-31 residues 20-52) (RNA, miRNA) GGCAUAGCUGUUGAACUGGGAACCUGCUAUGCC; experiment: fluorescence titration of dye with RNA; conditions: KH2PO4 50 mM (500 mM in Methods), Mg2+ 1 mM; 500 nM TO-PRO-1, RNA 0-20 μM, pH 7.5, 2% DMSO, room temperature
[6] = system: miR-31 hairpin (pre-miR-31 residues 20-52) (RNA, miRNA) GGCAUAGCUGUUGAACUGGGAACCUGCUAUGCC; experiment: 1H-13C HSQC NMR titration (chemical shift perturbation); conditions: KH2PO4 50 mM (500 mM in Methods), Mg2+ 1 mM, apparent, pH 7.5, 2% DMSO, 10% D2O, 37 °C

SMILES: COc1ccc(Nc2nc(N)nc(N)c2C#N)cc1
% TO-PRO-1 displaced ([1]; below 15% hit criterion): 7.6 ± 1.8% | binding [2]: weak | binding ([3]; pH 7.5, 25 °C): weak

SMILES: C[n+]1c(C=C2C=CN(CCC[N+](C)(C)C)c3ccccc32)sc2ccccc21
KD [5]: 0.46 ± 0.06 µM

SMILES: Cc1cccc(Nc2nc(N)nc(N)c2C#N)c1
% TO-PRO-1 displaced ([1]; below 15% hit criterion): 7.6 ± 2.7% | binding [2]: weak | binding ([3]; pH 7.5, 25 °C): weak

Results, then the compound that gave them:

% TO-PRO-1 displaced ([1]; 2% DMSO, room temperature): 28.6 ± 0.4% | KD ([4]; excess ligand non-specific): 29.10 ± 0.15 µM
SMILES: Nc1ccc(-c2nc3cncc(N)c3[nH]2)c(O)c1

binding [1]: yes | KD [6]: > >1000 μM | binding ([3]; pH 7.5, 2% DMSO, 25 °C): yes
SMILES: Nc1cc(Nc2ccc(Br)cc2)nc(N)n1

KD ([6]; no saturation at 1 mM): > >1000 μM | binding ([3]; pH 7.5, 25 °C, not detected by FID at 100 μM): yes
SMILES: Nc1ccccc1-c1nc2cnccc2[nH]1

binding [1]: yes | KD ([4]; non-specific at 10-fold excess): 20.64 ± 9.40 µM
SMILES: Nc1nc(N)c2c(ccc3[nH]ccc32)n1
